# Assay results published in patent US20100291592A1, “NOVEL MARKER FOR SENSITIVITY AGAINST SULFONAMIDE COMPOUND” (priority 2006, published 2010).
# Test system: EGFR1
# Assay: EGFR1 expression level in cultured HCT116-C9 (mass spectrometry, 12C/13C-leucine labelling)
# Type: cell-based, human
# Details: HCT116-C9, 1 μM E7070, 24 hours, LC-MS/MS, treated/untreated
# Protocol: First, RPMI-1640 (containing 10% FBS) supplemented with ^13C-labeled L-leucine (^13C-leucine, Cambridge Isotope Labs) and RPMI-1640 (containing 10% FBS) supplemented with non-isotope-labeled L-leucine (^12C-leucine) were prepared. Then, human colon cancer cell line HCT116-C9 was cultured in each medium through at least the fifth passage. HCT116-C9 was a subline separated from human colon cancer cell line HCT116 (obtained from ATCC) and known as a cell line highly sensitive to […] (Molecular Cancer Therapeutics, 2002, 1, 275-286). Thereafter, each cell was seeded in a 15-cm-diameter culture dish at a concentration of 1.0×10^7 cells/50 ml. Then, 24 hours later, 1 μM of […] was added to HCT116-C9 cultured in the ^12C-leucine-containing medium and nothing was added to HCTZ 16-C9 cultured in the ^13C-leucine-containing medium. These cells were continued culturing. Twenty-four hours later, the cells were washed twice with a phosphate buffer saline according to a routine procedure, added with 3 ml of M-PER (PIERCE) to solubilize the cells and then equal amounts of them were mixed. The cell lysates were dialyzed by a routine procedure to sublimate the solutions, and digested with trypsin, thereby obtaining peptide samples. The resulting peptide samples were analyzed with LC-MS/MS. […]
row,SMILES,Peak intensity ratio (12C/13C) of EGFR1-derived peptide fragment
1,"NS(=O)(=O)c1ccc(S(=O)(=O)Nc2cccc3c(Cl)c[nH]c23)cc1 [E7070, N-(3-chloro-1H-indole-7-yl)-1,4-benzenedisulfonamide]",0.6-0.8

# Test system: cancer cell line resistant to E7070
# Assay: not given
# Details: WO2006/030941 and WO2006/030947; cited from earlier work
row,SMILES,Cross-resistance of E7070-resistant cancer cell line (antiproliferative activity)
1,"O=C(Nc1ccc(Cl)cc1)NS(=O)(=O)c1ccc2c(c1)CCC2 [LY186641, N-[[(4-chlorophenyl)amino]carbonyl]-2,3-dihydro-1H-indene-5-sulfonamide]",cross-resistance
2,"O=C(Nc1ccc(Cl)c(Cl)c1)NS(=O)(=O)c1ccc2c(c1)CCO2 [LY295501, N-[[(3,4-dichlorophenyl)amino]carbonyl]-2,3-dihydrobenzofuran-5-sulfonamide]",cross-resistance
3,"Nc1ccc(S(=O)(=O)Nc2cnc3c(Cl)cccc3n2)cc1 [CQS, 2-sulfanylamide-5-chloroquinoxaline]",cross-resistance
4,"O=C(NS(=O)(=O)c1ccc(Br)s1)c1ccc(Cl)cc1Cl [LY573636, N-(2,4-dichlorobenzoyl)-5-bromothiophene-2-sulfonamide]",cross-resistance
5,"O=C(NS(=O)(=O)c1ccc(Cl)cc1)c1ccc(Cl)cc1Cl [LY-ASAP, N-(2,4-dichlorobenzoyl)-4-chlorophenylsulfonamide]",cross-resistance
